Laboratory results taken from ChEMBL document CHEMBL3259548, “Design, synthesis and biological evaluation of novel isoniazid derivatives with potent antitubercular activity” (Eur J Med Chem, 2014).
Converted amounts (≈) assume the structure as drawn.

Key:
Assay type in all cases: functional
[1] = system: Mycobacterium tuberculosis; test: Antitubercular activity against katG-deficient isoniazid-resistant Mycobacterium tuberculosis H37Rv ATCC 27294 by BACTEC 960 assay
[2] = system: Mycobacterium tuberculosis; test: Antitubercular activity against Mycobacterium tuberculosis H37Rv clinical isolate harboring katG S315T mutant by BACTEC 960 assay
[3] = system: Mycobacterium tuberculosis; test: Ratio of isoniazid MIC to compound MIC for Mycobacterium tuberculosis H37Rv clinical isolate harboring katG S315T mutant by BACTEC 960 assay

| Compound | MIC [1] [µM] | MIC [2] [µM] | Ratio [3] |
| --- | --- | --- | --- |
| CC(=O)NNC(=O)c1ccncc1 | > 55.8 | >55.8 |  |
| O=Cc1cccc(/C=N/NC(=O)c2ccncc2)c1 | > 39.5 | >39.5 |  |
| O=Cc1ccc(/C=N/NC(=O)c2ccncc2)cc1 | > 39.5 | >39.5 |  |
| O=C(N/N=C/c1cccc(CO)c1)c1ccncc1 | > 39.2 | 39.2 (≈ 10 µg/mL) |  |
| O=C(N/N=C/c1ccc(CO)cc1)c1ccncc1 | > 39.2 | 39.2 (≈ 10 µg/mL) |  |
| O=C(NN=C1CCCC1)c1ccncc1 | > 49.2 | 39.4 (≈ 8.01 µg/mL) |  |
| O=C(NN=C1CCC(c2ccccc2)CC1)c1ccncc1 (stereo not given) | > 34.1 | 34.1 (≈ 10 µg/mL) |  |
| COC(=O)c1ccc(/C=N/NC(=O)c2ccncc2)cc1 |  | 21.2 (≈ 6.01 µg/mL) |  |
| O=C(N/N=C/c1ccc(Oc2ccccc2)cc1)c1ccncc1 |  | 18.9 (≈ 6 µg/mL) |  |
| CCCCCCCCCC(=O)NNC(=O)c1ccncc1 | > 34.3 | 6.9 (≈ 2.01 µg/mL) | 6 |
| CCCCCC(C)C(=O)NNC(=O)c1ccncc1 (stereo not given) |  | >38 |  |
| O=C(NNC1CCC(c2ccccc2)CC1)c1ccncc1 (stereo not given) | > 33.9 | >33.9 |  |
| NNC(=O)c1ccnc(NN)c1 |  | 47.9 (≈ 8.01 µg/mL) |  |
| NNC(=O)c1ccncc1 [ISONIAZID] | > 72.9 | 43.8 (≈ 6.01 µg/mL) |  |
